# Measured values as given in patent US4448962A, “Substituted quinoline carboxylic acid derivatives” (Kyorin Seiyaku Kabushiki Kaisha, priority 1978, dated 1984).
# Read-outs that look alike come from different tables or passages of the source.
# Columns and labels:
# Assay in all cases: Antibacterial spectrum (Minimum Inhibitory Concentration)
# Format in all cases: cell-based
# E. coli ATCC 10536 = conditions: Escherichia coli, ATCC10536, read-out: Minimum Inhibitory Concentration
# Description: (§1) The antibacterial tests were done according to the method authorized by the Chemotherapeutic Society of Japan.
# Shigella sonnei IID 969 = conditions: IID969; Shigella sonnei IID 969, Gram -
# Description: as §1
# [1] = tested on: Escherichia coli NIHJ JC-2; conditions: Escherichia coli, NIHJJC2, read-out: Minimum Inhibitory Concentration
# Description: as §1
# [2] = tested on: Bacillus subtilis PCI 219
# Description: as §1
# [3] = tested on: Salmonella enteritidies IID 604
# Description: as §1
# [4] = tested on: Pseudomonas aeruginosa V-1
# Description: as §1
# Ps. aeruginosa IID 1130 = conditions: Pseudomonas aeruginosa
# Description: as §1
# [5] = tested on: Mycobacterium smegmatis IFO 3083; conditions: Mycolicibacterium smegmatis
# Description: as §1
# [6] = tested on: Klebsiella pneumoniae IFO 3512; conditions: Klebsiella pneumoniae, IFO3512, read-out: Minimum Inhibitory Concentration
# Description: as §1
# [7] = tested on: Proteus vulgaris IFO 3167
# Description: as §1
# Pr. vulgaris XK Denken = conditions: Proteus vulgaris, read-out: Minimum Inhibitory Concentration
# Description: as §1
# Ps. aeruginosa IFO 12689 = conditions: Pseudomonas aeruginosa
# Description: as §1
# [8] = tested on: Staphylococcus aureus 209P; conditions: read-out: Minimum Inhibitory Concentration
# Description: as §1
# Ps. aeruginosa IID 1210 = conditions: Pseudomonas aeruginosa
# Description: as §1
# Sta. aureus ATCC 14775 = conditions: Staphylococcus aureus
# Description: as §1
compound,measurement,setting,value
"CCn1cc(C(=O)O)c(=O)c2ccc(C)nc21 [Nalidixic, nalidixic acid, reference compound]",MIC,E. coli ATCC 10536,3.13 µg/mL
same,MIC,Shigella sonnei IID 969,1.56 µg/mL
same,MIC,[1],3.13 µg/mL
same,MIC,"[2]; Bacillus subtilis, PCI219, read-out: Minimum Inhibitory Concentration",6.25 µg/mL
same,MIC,"[3]; Salmonella, IID604, read-out: Minimum Inhibitory Concentration",12.5 µg/mL
same,MIC,"[4]; Pseudomonas aeruginosa, V1, read-out: Minimum Inhibitory Concentration",100 µg/mL
same,MIC,"Ps. aeruginosa IID 1130; IID1130, read-out: Minimum Inhibitory Concentration",> 200 µg/mL
same,MIC,"[5]; IFO3083, read-out: Minimum Inhibitory Concentration",> 100 µg/mL
same,MIC,[6],1.56 µg/mL
same,MIC,"[7]; Proteus vulgaris, IFO3167, read-out: Minimum Inhibitory Concentration",3.13 µg/mL
same,MIC,Pr. vulgaris XK Denken,3.13 µg/mL
same,MIC,"Ps. aeruginosa IFO 12689; IFO12689, read-out: Minimum Inhibitory Concentration",> 200 µg/mL
same,MIC,"[8]; Staphylococcus aureus, 209P",100 µg/mL
same,MIC,"Ps. aeruginosa IID 1210; IID1210, read-out: Minimum Inhibitory Concentration",> 200 µg/mL
same,MIC,"Sta. aureus ATCC 14775; ATCC14775, read-out: Minimum Inhibitory Concentration",> 100 µg/mL
"CCn1cc(C(=O)O)c(=O)c2cnc(N3CCNCC3)nc21 [Pipemidic acid, reference compound]",MIC,E. coli ATCC 10536,1.56 µg/mL
same,MIC,Shigella sonnei IID 969,1.56 µg/mL
same,MIC,[1],1.56 µg/mL
same,MIC,"[2]; PCI219, Bacillus subtilis PCI 219, Gram +, read-out: Minimum Inhibitory Concentration",6.25 µg/mL
same,MIC,"[3]; IID604, Salmonella enteritidies IID 604, Gram -, read-out: Minimum Inhibitory Concentration",12.5 µg/mL
same,MIC,"[4]; V1, Pseudomonas aeruginosa V-1, Gram -, read-out: Minimum Inhibitory Concentration",12.5 µg/mL
same,MIC,"Ps. aeruginosa IID 1130; IID1130, Ps. aeruginosa IID 1130, Gram -, read-out: Minimum Inhibitory Concentration",25 µg/mL
same,MIC,"[5]; IFO3083, Mycobacterium smegmatis IFO 3083, Gram +, read-out: Minimum Inhibitory Concentration",50 µg/mL
same,MIC,[6],1.56 µg/mL
same,MIC,"[7]; IFO3167, Proteus vulgaris IFO 3167, Gram -, read-out: Minimum Inhibitory Concentration",3.13 µg/mL
same,MIC,"Pr. vulgaris XK Denken; Pr. vulgaris XK Denken, Gram -",6.25 µg/mL
same,MIC,"Ps. aeruginosa IFO 12689; IFO12689, Ps. aeruginosa IFO 12689, Gram -, read-out: Minimum Inhibitory Concentration",25 µg/mL
same,MIC,"[8]; Staphylococcus aureus 209P, Gram +",25 µg/mL
same,MIC,"Ps. aeruginosa IID 1210; IID1210, Ps. aeruginosa IID 1210, Gram -, read-out: Minimum Inhibitory Concentration",50 µg/mL
same,MIC,"Sta. aureus ATCC 14775; ATCC14775, Sta. aureus ATCC 14775, Gram +, read-out: Minimum Inhibitory Concentration",100 µg/mL
